# Measured values from patent US7235534B2, “Antisense strategy to modulate estrogen receptor response (ER α and/or ER β )” (Institut de Cardiologie de Montreal, priority 2001, dated 2007).
# How the values were obtained:
# [1] = tested on: p38 MAPK; test: Western blot of p38 MAPK phosphorylation in PSMC; assay type: cell-based, porcine; settings: for reversal of the effect of 17βE on p38 MAPK induced by PDGF-BB: antagonist 10^−7M
# Experimental: (§1) Confluent PAEC and PSMC were starved for 7 hours in DMEM and antibiotics. Culture medium was removed, and cells were rinsed twice with ice-cold DMEM. PSMC were incubated on ice in DMEM with or without 17βE (10^−8M) for 30 min, incubated at 37° C. for 5, 10, 15 and 30 min, then brought back on ice. Cell were then rinsed with cold DMEM, incubated on ice in DMEM, bovine serum albumin (1 mg/ml), PDGF-BB (10 ng/ml) for 30 min, incubated at 37° C. for 5 min, and then brought back on ice. PAEC were incubated on ice in DMEM with or without 17βE (10^−7M) for 30 min, then incubated at 37° C. for 5, 10, 15 and 30 min and brought back on ice. […] Total proteins were prepared by the addition of 500 μl of lysis buffer containing phenylmethylsulfonyl fluoride 1 mM, leupeptin 10 μg/ml, aprotinin 30 μg/ml, and NaVO3 1 mM (Sigma). Plates were incubated at 4° C. for 30 min and scraped, and the protein concentration was determined with a Bio-Rad protein kit (Bio-Rad, Hercules, Calif.). Same protein quantity for each cell type and condition were dissolved in Laemmli's buffer, boiled for 5 min in reducing conditions, separated by a 10% gradient SDS-PAGE (Protean II kit; Bio-Rad), and transblotted onto a 0.45-μm polyvinylidene difluoride membranes (Millipore Corp., Bedford, Mass.). The membranes were blocked in 5% Blotto-TTBS (5% nonfat dry milk; Bio-Rad), 0.05% Tween 20, 0.15 M NaCl, 25 mM Tris-HCl, pH 7.5) for 1 h at room temperature with gentle agitation and incubated overnight at 4° C. in 0.5% Blotto-TTBS with the addition of an anti-phospho p42/44 MAPK or an anti-phospho p38 MAPK rabbit polyclonal antiserums (α-pp42/44; dilution of 1:10 000, and α-pp38; dilution 1:5000, New England BioLabs, Beverly, Mass.). Membranes were washed with TTBS, and incubated at room temperature with an anti-rabbit IgG antibody coupled to horseradish peroxidase (dilution 1:10 000–1:20 000, Santa Cruz Biotechnology, Santa Cruz, Calif.) in 0.5% Blotto-TTBS for 30 min. […] Kaleidoscope molecular weight and SDS-plyacrylamide gel electrophoresis broad range marker proteins (Bio-Rad) were used as standards for SDS-plyacrylamide gel electrophoresis. Digital image densitometry (PDI Bioscience, Aurora, ON) was performed on x-ray film to determine relative percentages of p42/44 and p38 MAPK phosphorylation.
# Confluent PAEC and PSMC were preteated with or without antisense sequences as described above for Western Blot analysis. Cells were rinsed twice with ice-cold DMEM. PSMC and PAEC were stimulated with or without 17βE (10^−8 mol/L) as previously described (Geraldes P). Briefly, PSMC were incubated on ice in DMEM with or without 17βE (10^−8 mol/L) for 30 minutes, incubated at 37° C. for 30 minutes, then brought back on ice. Cells were then rinsed with cold DMEM, incubated on ice in DMEM, bovine serum albumin (1 mg/mL), PDGF-BB (10 ng/mL) for 30 minutes, incubated at 37° C. for 5 and 30 minutes, and then brought back on ice. PAEC were incubated on ice in DMEM with or without 17βE (10^−8 mol/L) for 30 minutes, then incubated at 37° C. for 5 and 30 minutes and brought back on ice. Total proteins were prepared-by the addition of 500 μL of lysis buffer, incubated at 4° C. for 30 minutes and scraped to collect the proteins. Same quantity of protein was separated by a 10% gradient SDS-PAGE (Protean II kit; Bio-Rad), and transblotted onto a 0.45-μm polyvinylidene difluoride membranes (Millipore Corp.). The membranes were blocked for 1 hour at room temperature with gentle agitation and incubated overnight at 4° C. in 0.5% Blotto-TTBS with the addition of an antiphospho p42/44 MAPK or an antiphospho p38 MAPK rabbit polyclonal antiserums (α-pp42/44; dilution of 1:10000, and α-pp38; dilution 1:5 000, New England BioLabs, Beverly, Mass.). Membranes were washed with TTBS, and incubated at room temperature with an anti-rabbit IgG antibody coupled to horseradish peroxidase (dilution 1:10 000–1:20 000, Santa Cruz Biotechnology) in 0.5% Blotto-TTBS for 30 minutes. […]
# [2] = tested on: Porcine aortic endothelial cells (PAEC); test: Mitogenic assay on PAEC (cell count); assay type: cell-based; settings: for inhibition of the 17βE mitogenic activity in PAEC: antagonist 10^−7M pretreatment
# Experimental: (§2) Confluent PAEC and PSMC were rinsed with DMEM and trypsinized. Cells were resuspended in 10 ml of DMEM, 5% FBS, and antibiotics, and a cell count was obtained with a Coulter Counter Z1 (Coulter Electronics, Luton, UK). PAEC and PSMC were seeded at 1×10^4 cells/well of 24-well tissue culture plates (Becton-Dickinson, Rutherford, N.J., U.S.A.) stimulated for 24 h in DMEM, 5% FBS, and antibiotics, and starved for 48 h in DMEM, 0.1% FBS, and antibiotics. […] After trypsinization, cell number was determined by using a Coulter counter.
# (§3) Confluent PAEC and PSMC were rinsed with DMEM and trypsinized. Cells were resuspended in 10 mL of DMEM, 5% FBS, and antibiotics, and a cell count was obtained. PAEC and PSMC were initially seeded at 1×10^4cells/well of 24-well tissue culture plates stimulated for 24 hours in DMEM, 5% FBS, and antibiotics with or without antisense oligomers (10^−6 mol/L), and starved for 48 hours in DMEM, 0.1% FBS, and antibiotics with or without antisense oligomers (10^−6 mol/L daily) for G0 synchronization. Initial cell number for growth was determined using a Coulter counter. The cells were stimulated for 72 hours in DMEM, 1% FBS, antibiotics with or without antisense oligomers (10^−6 mol/L daily) and with or without of 17βE (Sigma). After trypsinization, cell number was determined by using a Coulter counter.
# [3] = tested on: Porcine smooth muscle cells (PSMC); test: Mitogenic assay on PSMC (cell count); assay type: cell-based; settings: for inhibition of PSMC proliferation mediated by FBS: 17βE 10^−7M, 72 h
# Experimental: as §2, §3
# [4] = tested on: p42/44 MAPK; test: Western blot of p42/44 MAPK phosphorylation in PSMC; assay type: cell-based, porcine
# Experimental: as §1
# Confluent PAEC and PSMC were preteated with or without antisense sequences as described above for Western Blot analysis. Cells were rinsed twice with ice-cold DMEM. PSMC and PAEC were stimulated with or without 17βE (10^−8 mol/L) as previously described (Geraldes P). […] Same quantity of protein was separated by a 10% gradient SDS-PAGE (Protean II kit; Bio-Rad), and transblotted onto a 0.45-μm polyvinylidene difluoride membranes (Millipore Corp.). […]
# [5] = local delivery upon porcine coronary angioplasty; cited from earlier work
# [6] = 17βE 10^−8 mol/L 30 minutes, Example 2
# [7] = substance alone, data not shown
structure (smiles),measurement,setting,value
"O=C(c1ccc(OCN2CCCCC2)cc1)c1c(-c2ccc(O)cc2)sc2cc(O)ccc12 [Ral, Raloxifen]",reversal of the effect of 17βE on p38 MAPK induced by PDGF-BB,[1]; PDGF-BB 30 min,32%
same,inhibition of the 17βE mitogenic activity in PAEC,[2]; 17βE 10^−8M,inhibited completely
same,reversal of the anti-mitogenic activity of 17βE on PSMC,"[3]; Rai 10^−1M as printed, 17βE 10^−8M, FBS 1%",100%
"CC/C(=C(\c1ccc(O)cc1)c1ccc(OCCN(C)C)cc1)c1ccccc1 [4-OHT, 4-OH-Tamoxifen]",reversal of the effect of 17βE on p38 MAPK induced by PDGF-BB,[1]; PDGF-BB 30 min,53%
same,inhibition of the 17βE mitogenic activity in PAEC,[2]; 17βE 10^−8M,inhibited completely
same,reversal of the anti-mitogenic activity of 17βE on PSMC,"[3]; 4-OHT 10^−8M and 10^−7M, 17βE 10^−8M, FBS 1%",81%
"C[C@]12CC[C@@H]3c4ccc(O)cc4CC[C@H]3[C@@H]1CC[C@@H]2O [17βE, 17-beta-estradiol]",reversal of PDGF-BB-increased p38 MAPK phosphorylation,[1]; [6],reversed
same,inhibition of PDGF-BB-mediated p38 MAPK phosphorylation,"[1]; 17βE (10^−8M) pretreatment 30 minutes, PDGF-BB 30 min",85%
same,reduction of PDGF-BB induced phosphorylation of p38 MAPK,[1]; 17βE for 30 min,85%
same,change in basal phosphorylation of p38 MAPK,[1]; [7],did not observe any change
same,induction of PAEC proliferation over FBS 1% treatment,"[2]; 17βE 10^−8M, 72 h, Example 1",37%
same,induction of PAEC proliferation over FBS 1% treatment,"[2]; 17βE 10^−8 mol/L, Example 2",123%
same,concentration of maximum induction of PAEC proliferation,"[2]; 17βE 10^−10 to 10^−7M, DMEM 1% FBS, data not shown",10^−8 M
same,time of maximum inhibition of PDGF-BB-induced p42/44 MAPK phosphorylation,"[4]; 17βE 10^−8M pretreatment, PDGF-BB 5 minutes",30 min
same,reversal of PDGF-BB-increased p42/44 MAPK phosphorylation,[4]; [6],reversed
same,reduction of PDGF-BB induced phosphorylation of p42/44 MAPK,[4]; 17βE for 30 min,100%
same,change in basal phosphorylation of p42/44 MAPK,[4]; [7],did not observe any change
same,reduction of the degree of restenosis,[5],up to 50%
same,inhibition of PSMC proliferation mediated by FBS,[3]; FBS 1%,88%
same,inhibition of PSMC proliferation mediated by FBS,[3]; FBS 5%,90%
same,inhibition of FBS 1% mitogenic activity on PSMC,"[3]; 17βE 10^−8M, Example 1",inhibited completely
same,prevention of PSMC proliferation mediated by FBS 1%,"[3]; 17βE 10^−8 mol/L, Example 2",95%
"CC/C(=C(\c1ccccc1)c1ccc(OCCN(C)C)cc1)c1ccccc1 [Tam, Tamoxifen]",reversal of the effect of 17βE on p38 MAPK induced by PDGF-BB,[1]; PDGF-BB 30 min,51%
same,inhibition of the 17βE mitogenic activity in PAEC,[2]; 17βE 10^−8M,inhibited completely
same,reversal of the anti-mitogenic activity of 17βE on PSMC,"[3]; Tam 10^−7M, 17βE 10^−8M, FBS 1%",75%
